Experimental data from ChEMBL document CHEMBL1201862, “PubChem BioAssay data set” (2004).
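Protocol summary: plate cells (96-well), add compound at 5 concentrations, incubate 48 h, interpolate endpoints linearly. Abbreviation: GI50, concentration required for 50% inhibition of growth.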 Active and inactive are the calls of the source. Rule as the data show it: active = GI50 up to about 1.1 µM and inactive = higher.

Key:
Assay in all cases: NCI-60 cell line screen, 48 h
OVCAR-5 = test system: OVCAR-5
NCI-H226 = test system: NCI-H226
MOLT-4 = test system: MOLT-4
SF-295 = test system: SF-295
NCI-H522 = test system: NCI-H522
SK-MEL-5 = test system: SK-MEL-5
SF-539 = test system: SF-539
U-251 = test system: U-251
HL-60 = test system: HL-60
HCT-116 = test system: HCT-116
NCI-H23 = test system: NCI-H23
TK-10 = test system: TK-10
SR = test system: SR
HCC 2998 = test system: HCC 2998
LOX IMVI = test system: LOX IMVI
A498 = test system: A498
HOP-62 = test system: HOP-62
HOP-92 = test system: HOP-92
NCI/ADR-RES = test system: NCI/ADR-RES
UO-31 = test system: UO-31

Compound	GI50 (OVCAR-5)	GI50 (NCI-H226)	GI50 (MOLT-4)	GI50 (SF-295)	GI50 (NCI-H522)	GI50 (SK-MEL-5)	GI50 (SF-539)	GI50 (U-251)	GI50 (HL-60)	GI50 (HCT-116)	GI50 (NCI-H23)	GI50 (TK-10)	GI50 (SR)	GI50 (HCC 2998)	GI50 (LOX IMVI)	GI50 (A498)	GI50 (HOP-62)	GI50 (HOP-92)	GI50 (NCI/ADR-RES)	GI50 (UO-31)
Nc1nc(SCCC/C=C/I)nc2c1ncn2C1OC(COP(=O)(O)O)C(O)C1O (centres undefined)	> 100 µM (inactive)	> 100 µM (inactive)	> 100 µM (inactive)	> 100 µM (inactive)	> 100 µM (inactive)	> 100 µM (inactive)	> 100 µM (inactive)	> 100 µM (inactive)	> 100 µM (inactive)	> 100 µM (inactive)	> 100 µM (inactive)	> 100 µM (inactive)	> 100 µM (inactive)	> 100 µM (inactive)	> 100 µM (inactive)	> 100 µM (inactive)	> 100 µM (inactive)	> 100 µM (inactive)	–	–
CCCCCOc1ccc(/C=N\c2ccc(CCc3ccc(/N=C/c4ccc(OCCCCC)cc4)cc3)cc2)cc1	> 100 µM (inactive)	> 100 µM (inactive)	> 100 µM (inactive)	> 100 µM (inactive)	> 100 µM (inactive)	> 100 µM (inactive)	> 100 µM (inactive)	> 100 µM (inactive)	> 100 µM (inactive)	> 100 µM (inactive)	> 100 µM (inactive)	–	–	> 100 µM (inactive)	> 100 µM (inactive)	> 100 µM (inactive)	> 100 µM (inactive)	> 100 µM (inactive)	> 100 µM (inactive)	> 100 µM (inactive)
Cn1c(=O)c2nc(NCCO)cnc2n(C)c1=O	> 100 µM (inactive)	–	> 100 µM (inactive)	45.3 µM (inactive)	21.5 µM (inactive)	> 100 µM (inactive)	31.8 µM (inactive)	32.9 µM (inactive)	27.2 µM (inactive)	62.8 µM (inactive)	> 100 µM (inactive)	> 100 µM (inactive)	42.8 µM (inactive)	64.6 µM (inactive)	–	> 100 µM (inactive)	71.1 µM (inactive)	> 100 µM (inactive)	–	48.9 µM (inactive)
C[N+]1([O-])[C@H]2CC(OC(=O)[C@H](CO)c3ccccc3)C[C@H]1[C@H]1O[C@H]12 (some centres undefined)	> 100 µM (inactive)	> 100 µM (inactive)	> 100 µM (inactive)	> 100 µM (inactive)	> 100 µM (inactive)	> 100 µM (inactive)	> 100 µM (inactive)	> 100 µM (inactive)	–	> 100 µM (inactive)	> 100 µM (inactive)	> 100 µM (inactive)	> 100 µM (inactive)	–	> 100 µM (inactive)	> 100 µM (inactive)	> 100 µM (inactive)	–	> 100 µM (inactive)	> 100 µM (inactive)
COC(=O)/C=C\n1ncc(=O)[nH]c1=O	> 100 µM (inactive)	> 100 µM (inactive)	> 100 µM (inactive)	–	52.1 µM (inactive)	> 100 µM (inactive)	–	> 100 µM (inactive)	> 100 µM (inactive)	–	> 100 µM (inactive)	> 100 µM (inactive)	> 10 µM (inactive)	> 100 µM (inactive)	–	> 100 µM (inactive)	> 100 µM (inactive)	> 100 µM (inactive)	> 100 µM (inactive)	> 100 µM (inactive)
C=C(C)C1Cc2c(c3ccccc3n(C)c2=O)O1 (centres undefined)	–	> 100 µM (inactive)	> 100 µM (inactive)	> 100 µM (inactive)	> 100 µM (inactive)	> 100 µM (inactive)	> 100 µM (inactive)	> 100 µM (inactive)	> 100 µM (inactive)	–	> 100 µM (inactive)	> 100 µM (inactive)	–	–	> 100 µM (inactive)	> 100 µM (inactive)	< 0.01 µM (active)	93.3 µM (inactive)	–	> 100 µM (inactive)
CC(=O)Nc1ccc(Sc2nnc(NC(C)=O)s2)cc1	> 100 µM (inactive)	–	> 100 µM (inactive)	> 100 µM (inactive)	> 100 µM (inactive)	> 100 µM (inactive)	> 100 µM (inactive)	> 100 µM (inactive)	> 100 µM (inactive)	> 100 µM (inactive)	–	> 100 µM (inactive)	> 100 µM (inactive)	> 100 µM (inactive)	–	–	> 100 µM (inactive)	–	> 100 µM (inactive)	> 100 µM (inactive)
N#CCCN(CCC#N)c1ccc(/C=C(/NC(=O)Nc2ccccc2Cl)NC(=O)c2cc([N+](=O)[O-])ccc2Cl)cc1	> 100 µM (inactive)	> 100 µM (inactive)	42 µM (inactive)	> 100 µM (inactive)	44.1 µM (inactive)	> 100 µM (inactive)	> 100 µM (inactive)	> 100 µM (inactive)	–	> 100 µM (inactive)	–	> 100 µM (inactive)	42.4 µM (inactive)	> 100 µM (inactive)	> 100 µM (inactive)	–	> 100 µM (inactive)	> 100 µM (inactive)	–	55.7 µM (inactive)
CN(C)CCCNC(=O)N/N=C\c1cccc2ccccc12	> 10 µM (inactive)	–	> 10 µM (inactive)	> 10 µM (inactive)	> 10 µM (inactive)	> 10 µM (inactive)	> 10 µM (inactive)	–	> 10 µM (inactive)	> 10 µM (inactive)	–	> 10 µM (inactive)	> 10 µM (inactive)	> 10 µM (inactive)	> 10 µM (inactive)	> 10 µM (inactive)	> 10 µM (inactive)	> 10 µM (inactive)	> 10 µM (inactive)	4.45 µM (inactive)
c1ccc2c(CCNC3=NCCO3)cccc2c1	> 10 µM (inactive)	> 10 µM (inactive)	> 10 µM (inactive)	> 10 µM (inactive)	> 10 µM (inactive)	> 10 µM (inactive)	> 10 µM (inactive)	> 10 µM (inactive)	> 10 µM (inactive)	> 10 µM (inactive)	> 10 µM (inactive)	> 10 µM (inactive)	> 10 µM (inactive)	> 10 µM (inactive)	> 10 µM (inactive)	> 10 µM (inactive)	> 10 µM (inactive)	–	> 10 µM (inactive)	4.26 µM (inactive)
CCOC(=O)COc1ccc(OC)c2c1C(=O)CCC2	–	–	> 100 µM (inactive)	> 100 µM (inactive)	–	> 100 µM (inactive)	> 100 µM (inactive)	> 100 µM (inactive)	> 100 µM (inactive)	> 100 µM (inactive)	> 100 µM (inactive)	> 100 µM (inactive)	–	–	> 100 µM (inactive)	> 100 µM (inactive)	–	–	–	–
CN(CCO)/N=N/c1[nH]cnc1C(N)=O	> 100 µM (inactive)	> 100 µM (inactive)	> 100 µM (inactive)	77.8 µM (inactive)	> 100 µM (inactive)	> 100 µM (inactive)	> 100 µM (inactive)	> 100 µM (inactive)	79.3 µM (inactive)	49.5 µM (inactive)	> 100 µM (inactive)	49.2 µM (inactive)	39.7 µM (inactive)	> 100 µM (inactive)	26.2 µM (inactive)	> 100 µM (inactive)	74 µM (inactive)	77.8 µM (inactive)	–	–
CCN(CC)CCC(=O)NC1c2ccccc2Oc2c(C)cccc21 (centres undefined)	> 100 µM (inactive)	> 100 µM (inactive)	> 100 µM (inactive)	–	–	> 100 µM (inactive)	> 100 µM (inactive)	> 100 µM (inactive)	> 100 µM (inactive)	> 100 µM (inactive)	> 100 µM (inactive)	> 100 µM (inactive)	> 100 µM (inactive)	> 100 µM (inactive)	> 100 µM (inactive)	–	> 100 µM (inactive)	–	–	63.7 µM (inactive)
CN(C)CCNC(=O)c1cccc2c(=O)c3ccccc3oc12	24.3 µM (inactive)	25.2 µM (inactive)	41.3 µM (inactive)	30.3 µM (inactive)	–	25.2 µM (inactive)	53.3 µM (inactive)	44.4 µM (inactive)	29.2 µM (inactive)	13.7 µM (inactive)	35.3 µM (inactive)	–	–	60 µM (inactive)	20.7 µM (inactive)	21.1 µM (inactive)	38.5 µM (inactive)	20.1 µM (inactive)	27.6 µM (inactive)	18.1 µM (inactive)
COc1ccc2c(c1)[n+]([O-])c(C(=O)C/C(=N/NC(=O)c1ccccc1O)C(=O)Nc1ccc(Cl)c(C(F)(F)F)c1)c(C)[n+]2[O-]	45.4 µM (inactive)	> 100 µM (inactive)	37.3 µM (inactive)	72.3 µM (inactive)	39.6 µM (inactive)	45.8 µM (inactive)	> 100 µM (inactive)	> 100 µM (inactive)	–	48.2 µM (inactive)	47.5 µM (inactive)	50.5 µM (inactive)	–	32.7 µM (inactive)	79.8 µM (inactive)	53.8 µM (inactive)	37.8 µM (inactive)	> 100 µM (inactive)	–	20.7 µM (inactive)
COc1cc(C2c3cc4c(cc3[C@@H](Nc3ccccc3)C3COC(=O)[C@H]23)OCO4)cc(OC)c1O (some centres undefined)	1.86 µM (inactive)	0.28 µM (active)	< 0.01 µM (active)	0.171 µM (active)	1.24 µM (inactive)	0.787 µM (active)	0.322 µM (active)	0.391 µM (active)	0.14 µM (active)	0.391 µM (active)	0.238 µM (active)	–	–	1.23 µM (inactive)	0.414 µM (active)	0.221 µM (active)	0.155 µM (active)	0.857 µM (active)	2.07 µM (inactive)	0.531 µM (active)
